Test results: ChEMBL document CHEMBL1144534, “Molecular modeling of some 1H-benzimidazole derivatives with biological activity against Entamoeba histolytica: a comparative molecular field analysis study” (Bioorg Med Chem, 2007)

Tested on: Entamoeba histolytica
Assay: Antiamoebic activity against Entamoeba histolytica
Assay type: functional, organism-based

| SMILES | IC50 [nM] |
| --- | --- |
| CSc1nc2ccccc2n1C | 195 |
| Cc1nc2cc(Cl)ccc2n1C | 5.01 |
| O=[N+]([O-])c1cc2nc(C(F)(F)F)[nH]c2cc1[N+](=O)[O-] | 1350 |
| FC(F)(F)C(F)(F)c1nc2c(Br)c(Br)c(Br)c(Br)c2[nH]1 | 214 |
| Cn1c(S)nc2ccccc21 | 6.03 |
| Cn1c(N)nc2ccc(Cl)cc21 | 245 |
| Cn1c(S)nc2cc(Cl)c(Cl)cc21 | 129 |
| Cc1nc2ccccc2n1C | 61.7 |
| FC(F)(F)c1nc2cc(Br)ccc2[nH]1 | 1320 |
| Cn1c(S)nc2cc(Cl)ccc21 | 10 |
| CSc1nc2cc(Cl)c(Cl)cc2n1C | 1050 |
| FC(F)(F)c1nc2cc(Br)c(Br)cc2[nH]1 | 427 |

The next lines start with the values.

| IC50 [nM] | SMILES |
| --- | --- |
| 209 | FC(F)(F)C(F)(F)c1nc2cc(Cl)c(Cl)cc2[nH]1 |
| 302 | FC(F)(F)c1nc2c(Br)c(Br)c(Br)c(Br)c2[nH]1 |
| 3800 | Cn1c(S)nc2ccc(Cl)cc21 |
| 575 | CSc1nc2ccc(Cl)cc2n1C |
| 12.9 | Cc1nc2cc(Cl)c(Cl)cc2n1C |
| 37.2 | Cn1c(N)nc2cc(Cl)c(Cl)cc21 |
| 50.1 | FC(F)(F)c1nc2c(Br)cc(Br)cc2[nH]1 |
| 37.2 | CSc1nc2cc(Cl)ccc2n1C |
| 204 | Cc1nc2ccc(Cl)cc2n1C |
